Measured values published in publication PMC11469322, “Anti‐HER2 Super Stealth Immunoliposomes for Targeted‐Chemotherapy” (Advanced Healthcare Materials, 2023).
Read-outs that look alike come from different tables or passages of the source.

What was measured:
[1] = tested on: BT474 cells; assay: In vitro cytotoxicity, ATPlite luminescence assay; format: cell-based; details: Homo sapiens, BT-474; BT474 (HER2+), 48 h treatment + 24 h fresh medium, µM in DXR
Method: (§1) For cytotoxicity experiments, four human cancer cell lines were used, that is, three HER2+ BT474 (ATCC HTB‐20), SKBR3 (ATCC HTB‐ 30) and SKOV3 (ATCC HTB‐77), and the HER2‐ MDA‐MB‐231 (ATCC HTB‐26). Cells were maintained in DMEM medium supplemented with 10% fetal bovine serum (FBS), 1% glutamine, 1% penicillin‐streptomycin, in humidified conditions at 37 °C with 5% CO2.
(§2) The cytotoxic effect of formulations was evaluated on HER2+ (BT474, SKBR3, and SKOV3) and HER2‐ (MDA‐MB‐231) cell lines by means of the ATPlite Luminescence ATP Detection Assay System. The cytotoxic effect of targeted DXR‐loaded liposomal formulations was compared to that of non‐targeted DXR‐loaded liposomes and free DXR (positive control). Cells treated only with the medium were used as control. Briefly, the cells were seeded in black 96‐well plates at a density of 5000 cells/well (SKBR3, SKOV3, and MDA‐MB‐231) and 7500 cells/well (BT474). After 24 h, cells were treated with increasing concentrations of the liposomal formulations (0.01–50 µM in DXR, n = 7) for 24 (SKBR3, SKOV3, and MDA‐MB‐231) or 48 (BT474) h. At the end of the exposure, treatments were replaced by fresh complete medium for 24 h. To quantify ATP production, cells were treated following the manufacturer's instructions, and luminescence was quantified by means of a Victor Nivo multi‐plate reader (PerkinElmer, Waltham, MA, USA). The percentage of cell viability was determined as (luminescencetreated cells/luminescencecontrol cells) × 100. IC50 values were calculated using GraphPad Prism 9.0 (San Diego, CA, USA) by a nonlinear regression model.

[2] = tested on: SKBR3 cells; assay: In vitro cytotoxicity, ATPlite luminescence assay; format: cell-based; details: Homo sapiens, SK-BR-3; SKBR3 (HER2+), 24 h treatment + 24 h fresh medium, µM in DXR
Method: as §1, §2

[3] = tested on: SKOV3 cells; assay: In vitro cytotoxicity, ATPlite luminescence assay; format: cell-based; details: Homo sapiens, SK-OV-3; SKOV3 (HER2+), 24 h treatment + 24 h fresh medium, µM in DXR
Method: as §1, §2

[4] = Toxicological study in rats (blood count, plasma biochemistry, histology); format: in vivo, Sprague Dawley rats
Text: The study protocol was approved by the Ethics Committee of the University of Padova and the Italian Ministry of Health (Prot. No. 938/2016‐PR obtained on October 10, 2016), and animals were handled in compliance with national and international guidelines, that is, the Italian Legislative Decree 26/2014 and the “Guide for the Care and Use of Laboratory Animals” by the National Research Council of the National Academies. Female Sprague Dawley rats (140–190 g) were randomly divided into groups of 6 rats each. A dose of 2.5 mg kg^−1 in DXR of either free drug or DXR‐loaded liposomal formulations (SL, SIL, SSIL2) was administered via tail vein to the rats previously anesthetized with isoflurane gas (mixed with O2 in enclosed cages). At scheduled time points, blood samples (≈200 µL) were collected from the tail into heparin‐treated tubes and thereafter immediately centrifuged 15 min × 1500 × g to separate plasma. Rats were euthanized with isoflurane anesthesia 48 h after administration and the blood was collected with an intracardiac puncture to measure complete blood count and plasma biochemistry. These measurements were performed by means of standard laboratory tests.^[ [27] ^] After sacrifice, the main organs (liver, spleen, lungs, kidneys, heart, brain, ovaries) were collected, weighed, washed with saline solution, and frozen in liquid nitrogen. An appropriate amount of each organ was placed in formalin for histological analysis.^[ [28] ^]

[5] = Pharmacokinetic study in rats; format: in vivo, Sprague Dawley rats; details: 2.5 mg kg^−1 in DXR i.v.; for half-life: female, Sprague Dawley, rat, plasma, iv, 2.5 mg/kg, bicompartmental model
Method: DXR was extracted by treating 50 µL of plasma with 10 µL of 1 M Triton X‐100 and 580 µL of 81 mM HCl in isopropanol to allow plasma proteins precipitation. After overnight incubation at 4 °C, samples were centrifuged for 3 min × 3000 rpm and the supernatants were analyzed using an FP‐6500 Jasco spectrofluorometer (λ ex = 470 nm; λ em = 584 nm). DXR concentration in each plasma sample was extrapolated through a calibration curve of standard solutions of either DXR or DXR‐loaded SL for the liposomal formulations. The pharmacokinetic analysis was performed using the PKSolver 2.0 software by applying a bicompartmental model.

With COc1cccc2c1C(=O)c1c(O)c3c(c(O)c1C2=O)C[C@@](O)(C(=O)CO)C[C@@H]3O[C@H]1C[C@H](N)[C@H](O)[C@H](C)O1 [DXR, Doxorubicin] the IC50 [1] was 0.08 ± 0.003 µM, the IC50 [2] was 0.034 ± 0.026 µM and the IC50 [3] was 0.092 ± 0.004 µM. For the same compound, the “Anemia (red blood cells, hemoglobin, hematocrit decreased versus controls)” value ([4]; 2.5 mg kg^−1 in DXR i.v., 48 h) was “anemic”, the “Erythrocytes (RBCs)” value ([4]; 2.5 mg kg^−1 in DXR i.v., 48 h) was 4.61e+12 L⁻¹ and the Hematocrit ([4]; 2.5 mg kg^−1 in DXR i.v., 48 h) was 0.286 L/L. For the same compound, the Hemoglobin ([4]; 2.5 mg kg^−1 in DXR i.v., 48 h) was 93 ± 10 g/L, the Liver histology ([4]; 2.5 mg kg^−1 in DXR i.v., 48 h) was “small and isolated granulomatous lesion” and the MCH ([4]; 2.5 mg kg^−1 in DXR i.v., 48 h) was 20.3 ± 0.4 pg. For the same compound, the MCHC ([4]; 2.5 mg kg^−1 in DXR i.v., 48 h) was 329 ± 20 g/L, the MCV ([4]; 2.5 mg kg^−1 in DXR i.v., 48 h) was 61.8 ± 2.9 fL and the “Platelets (PLTs)” value ([4]; 2.5 mg kg^−1 in DXR i.v., 48 h) was 811 ± 402 x109/L. For the same compound, the RDW ([4]; 2.5 mg kg^−1 in DXR i.v., 48 h) was 11.8 ± 0.5%, the Spleen histology ([4]; 2.5 mg kg^−1 in DXR i.v., 48 h) was “slight increased hematopoiesis” and the “Leukocytes (WBCs)” value ([4]; 2.5 mg kg^−1 in DXR i.v., 48 h after administration) was 2.05 ± 1.15 x109/L. For the same compound, the Glucose ([4]; plasma biochemistry, 2.5 mg kg^−1 in DXR i.v., 48 h) was 10.7 ± 0.8 mmol/L, the ALP ([4]; plasma biochemistry, 48 h) was 143 ± 36 U/L and the ALT ([4]; plasma biochemistry, 48 h) was 20 ± 6 U/L. For the same compound, the AST ([4]; plasma biochemistry, 48 h) was 78 ± 16 U/L, the Albumin ([4]; plasma biochemistry, 48 h) was 42 ± 3 g/L and the Calcium ([4]; plasma biochemistry, 48 h) was 2.67 ± 0.09 mmol/L. It also gave a Chloride ([4]; plasma biochemistry, 48 h) of 102 ± 2 mmol/L, a Creatinine ([4]; plasma biochemistry, 48 h) of 16 ± 2 µM and a Direct bilirubin ([4]; plasma biochemistry, 48 h) of 0.3 ± 0.2 µM. The “Inorganic Phosphorous” value ([4]; plasma biochemistry, 48 h) was 2.45 ± 0.16 mmol/L, the Potassium ([4]; plasma biochemistry, 48 h) was 3.9 ± 0.4 mmol/L and the Sodium ([4]; plasma biochemistry, 48 h) was 142 ± 1 mmol/L. It also gave a Total bilirubin ([4]; plasma biochemistry, 48 h) of 0.4 ± 0.2 µM, a Total cholesterol ([4]; plasma biochemistry, 48 h) of 64 ± 9 mg/dL and a Triglycerides ([4]; plasma biochemistry, 48 h) of 64 ± 37 mg/dL. For the same compound, the Urea ([4]; plasma biochemistry, 48 h) was 4.7 ± 0.2 mmol/L, the AUC0‐inf [5] was 60 ± 31 ng·h/mL and the half-life ([5]; read-out: t 1/2 alpha (converted)) was 34.4 ± 21.6 min. The half-life ([5]; read-out: t 1/2 beta (converted)) was 79.1 ± 48.7 min.
